Assay results taken from the supplement of paper PMC8882468.

Columns and labels:
Experiment in all cases: CTG-3D luminescence at 96 h relative to day-0 seeding control (ratio to day 0); higher = more growth / less cytotoxicity; PDxO 3D drug screen, 96 h, CTG-3D normalised to day-0 seeding control.
[1] = tested on: HCI-001 (organoid from a triple-negative breast cancer xenograft)
[2] = tested on: HCI-002 (organoid from a triple-negative breast cancer xenograft)
[3] = tested on: HCI-003.E2 (organoid from an ER-positive breast cancer xenograft)
[4] = tested on: HCI-019 (organoid from a triple-negative breast cancer xenograft)
[5] = tested on: HCI-024 (organoid from a breast cancer xenograft)

C[C@H](NC(=O)CCC(F)(F)F)C(=O)N[C@@H]1C(=O)N(CCO)c2ncccc2-c2ccccc21 [crenigacestat]
CTG-3D luminescence at 96 h
Details	12.5 pM	0.00025 µM	0.005 µM	0.1 µM	1 µM	10 µM	100 µM	625 fM
[1], days in culture: 240	1.25	1.04	1.03	0.845	1.36	1.2	1.45	0.941
[1], days in culture: 260	2.03	0.875	1.52	1.34	1.54	1.84	1.12	1.44
[1], days in culture: 269	1.62	1.6	1.37	1.29	1.39	2.1	2	1.33
[1], days in culture: 327	1.46	1.4	1.63	1.87	1.24	1.06	1.64	1.76
[1], days in culture: 346	1.3	1.2	1.1	1.08	1.32	1.35	1.76	1.11
[1], days in culture: 364	1.4	1.08	1.35	1	1.1	1.27	1.1	1.43
[2], days in culture: 62	2.87	2.47	2.56	2.68	2.3	2.72	2.8	2.91
[2], days in culture: 82	3.27	3.18	2.46	2.78	2.76	2.69	2.21	2.76
[2], days in culture: 91	3.89	3.6	2.93	3.44	3.36	3.56	2.88	3.82
[2], days in culture: 191	2.59	2.32	2.2	2.19	2.46	2.35	2.4	2.36
[2], days in culture: 209	2.47	2.47	2.22	1.91	2.27	1.93	2.41	2.29
[2], days in culture: 227	5.37	5.77	5.03	5.6	4.74	4.97	3.7	4.95
[4], days in culture: 110	1.5	1.45	1.75	2.18	1.25	2.5	2.44	2.28
[4], days in culture: 131	2.19	3.56	1.97	2.86	2.87	2.81	3.41	3.74
[4], days in culture: 152	3.73	3.39	2.6	2.64	1.96	2.12	2	2.48
[5], days in culture: 105	1.19	1.65	1.35	1.59	2.01	1.98	1.62	1.56
[5], days in culture: 122	1.95	1.76	1.92	1.72	1.97	2.75	2	2.55
[5], days in culture: 163	1.93	2.2	2.01	2.48	2.19	2.38	1.88	1.86

[3]
Details	CTG-3D luminescence at 96 h
12.5 pM	2.2
0.00025 µM	2.4
0.005 µM	2.11
0.1 µM	2.4
1 µM	2.16
10 µM	2.09
100 µM	1.64
625 fM	2.07

COc1cccc2c1C(=O)c1c(O)c3c(c(O)c1C2=O)C[C@@](O)(C(=O)CO)C[C@@H]3O[C@H]1C[C@H](N)[C@H](O)[C@H](C)O1 [doxorubicin]
CTG-3D luminescence at 96 h
Details	12.5 pM	0.00025 µM	0.005 µM	0.1 µM	1 µM	10 µM	100 µM	625 fM
[1], days in culture: 240	1.83	0.976	0.995	1.06	0.795	0.102	0.0662	1.82
[1], days in culture: 260	2.69	0.99	2.06	1.71	0.863	0.169	0.0518	1.54
[1], days in culture: 269	1.42	1.69	1.45	1.69	0.478	0.0884	0.00519	1.42
[1], days in culture: 327	1.28	1.49	1.57	1.78	1.18	0.146	0.284	1.5
[1], days in culture: 346	1.4	1.22	1.02	1.01	0.949	0.141	0.182	1.14
[1], days in culture: 364	1.33	1.06	1.3	0.946	0.616	0.116	0.143	1.49
[2], days in culture: 62	2.87	2.62	2.59	1.61	0.668	0.0335	0.00573	2.88
[2], days in culture: 82	3.24	2.83	2.22	2.02	0.999	0.0349	0.0154	3.02
[2], days in culture: 91	4.09	3.38	3.24	2.3	1.03	0.0844	0.0322	3.96
[2], days in culture: 191	2.74	2.53	2.51	1.69	1.02	0.0535	0.00895	2.52
[2], days in culture: 209	2.54	2.37	2.28	1.51	0.836	0.0193	0.00843	2.44
[2], days in culture: 227	4.92	5.5	4.24	3.32	1.62	0.0266	-0.0178	5.72
[4], days in culture: 110	1.69	1.56	1.49	1.03	0.296	0.00454	-0.00853	1.91
[4], days in culture: 131	3.03	3.8	2.31	1.47	0.314	0.00725	-0.0127	4.1
[4], days in culture: 152	3.43	3.12	2.32	1.57	0.409	0.00363	-0.00918	2.03
[5], days in culture: 105	1.87	1.64	1.47	1.53	1.05	0.158	0.154	2.18
[5], days in culture: 122	2.06	2.32	1.72	1.45	1.06	0.153	0.156	2.88
[5], days in culture: 163	1.43	2.44	1.96	2.3	1.38	0.176	0.187	1.44

[3]
Details	CTG-3D luminescence at 96 h
12.5 pM	2.13
0.00025 µM	2.46
0.005 µM	2.07
0.1 µM	2.22
1 µM	1.15
10 µM	0.024
100 µM	-0.00504
625 fM	2.13
